Experimental data from the supplement of paper PMC10307832.

Key:
Assay in all cases: relative viability (nuclei count vs DMSO), 5 days (fraction); higher = more cells survive
FG-4592 + Dasatinib = compound: Cc1nc(C(=O)NCC(=O)O)c(O)c2ccc(Oc3ccccc3)cc12 [FG-4592] + Cc1nc(Nc2ncc(C(=O)Nc3c(C)cccc3Cl)s2)cc(N2CCN(CCO)CC2)n1 [Dasatinib] (partner 0.075 µM)
Procedure, shortened: (§1)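 Each reported value is a median over duplicate plates. It expresses relative viability: treated-well nuclei count divided by vehicle-well nuclei count. Lung cancer cell lines in 1536-well plates were dosed by pin tool a day after seeding, alone with one drug or with a fixed anchor-drug dose plus five library-drug doses (not always all listed) in √10 steps, and nuclei were counted after 5 days.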

IU1-47 + Navitoclax = compound: CC1=CC(=C(N1C2=CC=C(C=C2)Cl)C)C(=O)CN3CCCCC3 [IU1-47] + CC1(C)CCC(c2ccc(Cl)cc2)=C(CN2CCN(c3ccc(C(=O)NS(=O)(=O)c4ccc(N[C@H](CCN5CCOCC5)CSc5ccccc5)c(S(=O)(=O)C(F)(F)F)c4)cc3)CC2)C1 [Navitoclax] (partner 0.5 µM)
Procedure, shortened: as §1

FG-4592 + Luminespib = compound: Cc1nc(C(=O)NCC(=O)O)c(O)c2ccc(Oc3ccccc3)cc12 [FG-4592] + CCNC(=O)c1noc(-c2cc(C(C)C)c(O)cc2O)c1-c1ccc(CN2CCOCC2)cc1 [Luminespib] (partner 0.01 µM)
Procedure, shortened: as §1

IU1-47 + Lapatinib = compound: CC1=CC(=C(N1C2=CC=C(C=C2)Cl)C)C(=O)CN3CCCCC3 [IU1-47] + CS(=O)(=O)CCNCc1ccc(-c2ccc3ncnc(Nc4ccc(OCc5cccc(F)c5)c(Cl)c4)c3c2)o1 [Lapatinib] (partner 2 µM)
Procedure, shortened: as §1

Row | Cell Line | relative viability (FG-4592 + Dasatinib; first compound 0.08 µM) | relative viability (FG-4592 + Dasatinib; first compound 0.253 µM) | relative viability (FG-4592 + Dasatinib; first compound 0.8 µM) | relative viability (FG-4592 + Dasatinib; first compound 2.53 µM) | relative viability (FG-4592 + Dasatinib; first compound 8 µM) | relative viability (IU1-47 + Navitoclax; first compound 0.08 µM) | relative viability (IU1-47 + Navitoclax; first compound 0.253 µM) | relative viability (IU1-47 + Navitoclax; first compound 0.8 µM) | relative viability (IU1-47 + Navitoclax; first compound 2.53 µM) | relative viability (IU1-47 + Navitoclax; first compound 8 µM) | relative viability (FG-4592 + Luminespib; first compound 0.08 µM) | relative viability (FG-4592 + Luminespib; first compound 0.253 µM) | relative viability (FG-4592 + Luminespib; first compound 0.8 µM) | relative viability (FG-4592 + Luminespib; first compound 2.53 µM) | relative viability (FG-4592 + Luminespib; first compound 8 µM) | relative viability (IU1-47 + Lapatinib; first compound 0.08 µM) | relative viability (IU1-47 + Lapatinib; first compound 0.253 µM) | relative viability (IU1-47 + Lapatinib; first compound 0.8 µM) | relative viability (IU1-47 + Lapatinib; first compound 2.53 µM) | relative viability (IU1-47 + Lapatinib; first compound 8 µM)
1 | ChaGo-K-1 | 0.584 | 0.577 | 0.516 | 0.542 | 0.592 | 1.15 | 1.15 | 0.895 | 0.889 | 0.625 | 0.522 | 0.548 | 0.594 | 0.702 | 0.459 |  |  |  |  | 
2 | NCI-H522 | 0.887 | 0.892 | 0.801 | 0.843 | 0.829 |  |  |  |  |  | 0.895 | 1.22 | 1.18 | 1.01 | 1.08 |  |  |  |  | 
3 | NCI-H1299 |  |  |  |  |  | 1.11 | 1.13 | 1.05 | 1.05 | 1.03 |  |  |  |  |  | 0.962 | 0.982 | 0.975 | 1.02 | 0.934
4 | NCI-H2342 | 0.312 | 0.281 | 0.316 | 0.341 | 0.311 |  |  |  |  |  | 0.674 | 0.71 | 0.576 | 0.783 | 0.537 |  |  |  |  | 
5 | SW 900 | 0.889 | 0.57 | 0.444 | 0.55 | 0.461 |  |  |  |  |  | 0.168 | 0.167 | 0.174 | 0.174 | 0.165 |  |  |  |  | 
6 | HCC-366 | 0.624 | 0.607 | 0.339 | 0.573 | 0.414 | 1.07 | 1.09 | 0.935 |  | 1.46 |  |  |  |  |  | 1.04 | 0.938 | 1.26 |  | 1.15
7 | A549 |  |  |  |  |  | 1.23 | 1.27 | 1.21 | 1.26 | 1.1 |  |  |  |  |  | 0.987 | 1.1 | 0.92 | 1.08 | 0.858
